Results taken from patent US20240325378A1, “PERGOLIDE TREATMENT OF OCULAR CHEMICAL INJURY” (University of Oregon, priority 2023, published 2024).

How the values were obtained:
[1] = Change in mouse weight, baseline to 3 weeks post-injury; type: in vivo; details: medium dose 300 μg/ml group
Procedure: (§1) Change in mouse weight was compared from baseline to 3 weeks post-injury, and weight in the pergolide groups was compared to the non-pergolide groups (N=10; 5 male, 5 female). Following euthanasia, the heart and eyes were removed from the high dose pergolide and vehicle groups and histopathology was assessed using previously described protocols.

[2] = tested on: C57BL/6J mice with alkali corneal injury; assay: Limbal nerve density (β-tubulin III stained flat-mounts); type: in vivo, mouse; details: 3 weeks post injury, normal control 0.37±0.09
Procedure: (§2) Mice were separated into 7 treatment groups with 10 mice per group (5 male, 5 female); high dose pergolide (600 μg/ml), medium dose pergolide (300 μg/ml), low dose pergolide (50 μg/ml), vehicle (solution only), NGF (100 μg/ml), naïve (injury and no treatment), and normal (no injury and no treatment). Preparation of pergolide and vehicle groups were done with Marinosolv® (Marinomed, Hovengasse, Korneuburg, AT) as described in (Siegl 2019 and Zhang 2020). Recombinant mouse NGF (R&D Systems, Minneapolis, MN, US) was prepared by dissolution in 1× phosphate-buffered saline (PBS). Both solutions were stored at 4 C according to the manufacturer's guidelines.
(§3) Mice were confirmed to have normal corneas prior to starting the study. Alkali corneal injury was done on one eye of each mouse for all groups excluding the normal group, in accordance with an established mouse model (Cho J 2019). Alkali-based injury was chosen as it is one of the most common chemical injuries to the eye (Dua 2020). […] A 2 mm diameter filter paper disc was soaked in sodium hydroxide (0.75 M) then applied centrally on the cornea for 10 seconds. The disc was then removed and the ocular surface immediately irrigated with 10 ml of balanced sodium salts. The corneal surface was then lightly rubbed with the smooth side of forceps and irrigated in the same manner. None of the mice had eyelid or conjunctiva involvement of the injury. Erythromycin ointment (Perrigo, Dublin, IE) was then applied to the exterior of both eyes. Mice were placed on a water heating pad, monitored until fully awake, then returned to their cage. […]
(§4) Flat-mounts of mouse corneas were prepared and corneal nerve density was analyzed as previously described (N=6; 3 male, 3 female) (Zhang 2020) (FIG. 3A). […]
(§5) EVOS fluorescence microscope (Life Technologies, Carlsbad, CA, US) was used to create reconstructed whole-mount images and take images at the basal epithelial level in the central area of the injury. […]

[3] = tested on: C57BL/6J mice with alkali corneal injury; assay: Corneal haze grading (Roper-Hall classification) after corneal alkali injury; type: in vivo, mouse; details: 3 weeks post injury; medium dose 300 μg/ml; grade 0-4; naïve group 3.3±0.8
Procedure: as §2
as §3, with “The corneal surface was then lightly rubbed with the smooth side of forceps and irrigated in the same manner. None of the mice had eyelid or conjunctiva involvement of the injury. Erythromycin ointment (Perrigo, Dublin, IE) was then applied to the exterior of both eyes.” left out

[4] = tested on: C57BL/6J mice; assay: Histopathology of heart, retina, liver and kidney after topical treatment; type: in vivo, mouse; details: high, medium, and low dose topical eye drops for 3 weeks
Procedure: as §1
In brief, after excision, hearts, livers, and kidneys were fixed in formalin for 24 hours then embedded in paraffin and cut in the coronal and transverse planes (N=4; 2 male, 2 female) (Droogmans 2007 & 2009). Eyes were fixed in Davidson's solution for 24 hours then placed in 70% ethanol and processed prior then embedded in paraffin and cut in the sagittal plane (N=4; 2 male, 2 female) (Chidlow 2011). Hematoxylin and eosin were used to stain the slides (Cardiff 2014), then the EVOS fluorescence microscope was used to capture images.

[5] = tested on: C57BL/6J mice with alkali corneal injury; assay: Wiping test (ocular pain behavior) after corneal alkali injury; type: in vivo, mouse; details: females; for wiping (eye wipes, week minus baseline): week 2 post-injury, heightened vs week 1
Procedure: Seventy (35 male, 35 female) C57BL/6J mice (The Jackson Laboratory, Maine, US) were utilized (FIG. 1A). Mice were kept in a 12 hour light/12 hour dark cycle in groups of 5 with food and water ad libitum. Differences between males and females were assessed.
as §2
Mice were confirmed to have normal corneas prior to starting the study. Alkali corneal injury was done on one eye of each mouse for all groups excluding the normal group, in accordance with an established mouse model (Cho J 2019). Alkali-based injury was chosen as it is one of the most common chemical injuries to the eye (Dua 2020). […] A 2 mm diameter filter paper disc was soaked in sodium hydroxide (0.75 M) then applied centrally on the cornea for 10 seconds. The disc was then removed and the ocular surface immediately irrigated with 10 ml of balanced sodium salts. The corneal surface was then lightly rubbed with the smooth side of forceps and irrigated in the same manner. None of the mice had eyelid or conjunctiva involvement of the injury. Erythromycin ointment (Perrigo, Dublin, IE) was then applied to the exterior of both eyes. Mice were placed on a water heating pad, monitored until fully awake, then returned to their cage.
All groups except the no treatment groups received their respective eye drops (10 μl per eye drop) three times daily (5 out of 7 days each week) in the injured eye for 3 weeks following injury. Mice were held for 10 seconds with the eye drop on their eye before being returned to their cage. Mice were sacrificed by cervical dislocation after week 3.
Wiping test was chosen to assess ocular pain behavior and was done once weekly (at the same time), in accordance with previously established protocols (N=10; 5 male, 5 female) (Tashiro et al. 2010, Cho J et al. 2019). Testing was performed in a clear open-top cylinder surrounded by 2 mirrors and a video recorder in front of the cylinder. Mice were habituated to the cylinder prior to the start of the study. The test consisted of applying 10 μl of sodium chloride (2 M) to the surface of the study cornea for 10 seconds, blotting excess away, then recording the mouse in the cylinder for 30 seconds. […] A different pipette tip was used for each mouse. Sudden movements and loud noises were avoided during testing so as to not distract the subjects. An eye wipe was defined as a purposeful wipe by the ipsilateral forelimb across the eye or resulting in eye closure. Cage changes were not done within 3 days of each test, and when cage changes occurred it happened for each group simultaneously. Eye wiping was assessed at baseline (3 days prior to injury) and on post-injury weeks 1, 2, and 3.

[6] = tested on: C57BL/6J mice with alkali corneal injury; assay: Central corneal nerve density (β-tubulin III stained flat-mounts); type: in vivo, mouse; details: 3 weeks post injury; low dose 50 μg/ml; normal control 0.43±0.05
Procedure: as §2
Mice were confirmed to have normal corneas prior to starting the study. Alkali corneal injury was done on one eye of each mouse for all groups excluding the normal group, in accordance with an established mouse model (Cho J 2019). […] Mice were placed on a water heating pad, monitored until fully awake, then returned to their cage. […]
as §4, §5

[7] = medium dose 300 μg/ml eye drops

Molecule	minor weight loss of one mouse, of initial body weight [1]	limbal nerve density ([2]; high dose 600 μg/ml)	limbal nerve density ([2]; medium dose 300 μg/ml)	corneal haze grade [3]	retina, liver and kidney morphology [4]	heart histopathology ([4]; compared to the vehicle group)	wiping (eye wipes, week minus baseline) ([5]; high dose 600 μg/ml eye drops)	wiping (eye wipes, week minus baseline) [5, 7]	wiping at week 3 compared to week 2 ([5]; high dose 600 μg/ml eye drops)	wiping at week 3 compared to week 2 [5, 7]	central corneal nerve density (proportion of area with β-tubulin III staining) [6]	limbal nerve density ([2]; 100 μg/ml)	wiping (eye wipes, week minus baseline) ([5]; 100 μg/ml eye drops)	wiping at week 3 compared to week 2 ([5]; 100 μg/ml eye drops)
CCCN1C[C@H](CSC)C[C@@H]2c3cccc4[nH]cc(c34)C[C@H]21 [pergolide]	about 1%	0.35±0.11	0.34±0.08	2.2±1.1	did not show abnormal morphology	did not show presence of valvular fibrosis, glycosaminoglycans deposits/myxoid changes, chondroid metaplasia, or other abnormal pathology	7.0±5.8 wipes	6.2±5.5 wipes	decreased	decreased	0.10±0.03			
NGF: Recombinant mouse NGF (R&D Systems) dissolved in 1× PBS, 100 μg/ml eye drops; positive control (protein, UniProt P01139 122-241, looked up) Beta-nerve growth factor: SSTHPVFHMGEFSVCDSVSVWVGDKTTATDIKGKEVTVLAEVNINNSVFRQYFFETKCRASNPVESGCRGIDSKHWNSYCTTTHTFVKALTTDEKQAAWRFIRIDTACVCVLSRKATRRG												0.36±0.08	4.6±5.1 wipes	decreased
